Laboratory results published in article PMC5855801, “Benzothiophenone Derivatives Targeting Mutant Forms of Estrogen Receptor-α in Hormone-Resistant Breast Cancers” (International Journal of Molecular Sciences, 2018).
Read-outs that look alike come from different tables or passages of the source.

Experiments:
ERα [1] = molecular target: T1, ERα (Homo sapiens, UniProt P03372); design: method as in PMID 25848700; conditions: estrogen-sensitive T47DKBluc cells; previously reported; read-out: IC50 of previously-reported template compound; cited from earlier work
T1 construct: ERα-positive T47DKBluc cells were grown in phenol red-free RPMI 1640; endogenous in cells; host or cells: T47DKBluc (ATCC CRL-2865)
T1 sequence (P03372 1-595): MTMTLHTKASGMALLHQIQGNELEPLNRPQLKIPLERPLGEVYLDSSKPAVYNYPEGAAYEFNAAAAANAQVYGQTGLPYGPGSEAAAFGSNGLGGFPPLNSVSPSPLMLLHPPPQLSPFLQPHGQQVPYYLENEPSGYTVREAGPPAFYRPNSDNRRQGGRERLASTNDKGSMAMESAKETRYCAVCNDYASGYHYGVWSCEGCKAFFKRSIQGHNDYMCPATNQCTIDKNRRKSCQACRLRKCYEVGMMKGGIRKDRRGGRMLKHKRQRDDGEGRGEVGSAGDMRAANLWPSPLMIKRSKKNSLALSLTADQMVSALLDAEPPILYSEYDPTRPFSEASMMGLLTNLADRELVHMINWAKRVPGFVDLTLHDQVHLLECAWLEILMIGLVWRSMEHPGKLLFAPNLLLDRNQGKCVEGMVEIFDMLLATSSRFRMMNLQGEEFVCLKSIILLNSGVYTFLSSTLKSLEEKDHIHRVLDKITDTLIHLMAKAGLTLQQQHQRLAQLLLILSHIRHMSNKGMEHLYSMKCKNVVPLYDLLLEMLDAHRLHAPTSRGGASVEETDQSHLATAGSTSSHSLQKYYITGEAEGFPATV

[2] = molecular target: T2, ERα-LBD and FL-PGC1α peptide (Homo sapiens, UniProt P03372); assay: LanthaScreen TR-FRET ER Alpha coactivator displacement assay; type: biochemical; conditions: three-fold dilution range, dose-dependent
T2 construct: it was incubated with GST-tagged ERα-LBD (final concentration, 7.25 nM); purchased Life Technologies PV4544
T2 sequence (P03372 311-547 limits assumed): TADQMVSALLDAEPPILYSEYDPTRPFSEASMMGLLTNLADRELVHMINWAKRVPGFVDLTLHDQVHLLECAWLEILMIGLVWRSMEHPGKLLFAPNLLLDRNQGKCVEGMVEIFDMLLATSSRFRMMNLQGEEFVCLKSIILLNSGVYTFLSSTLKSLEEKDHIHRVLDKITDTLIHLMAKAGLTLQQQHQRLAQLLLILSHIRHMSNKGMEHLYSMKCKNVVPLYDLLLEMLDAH
Description: The LanthaScreen TR-FRET ER Alpha Coactivator Assay kit (PV4544; Life Technologies) was used as per the manufacturer’s instructions and described previously. To assess the binding of VPC-16464 to the AF2 site, it was incubated with GST-tagged ERα-LBD (final concentration, 7.25 nM) in the presence of a fluorescently-labelled co-activator peptide (fluorescein-PGC-1α) at a final concentration of 250 nM, terbium (Tb)-labelled anti-GST antibody (final concentration, 5 nM) and E2 (final concentration, EC80 […]). Cold SRC-2–3 and PGC-1α peptides were used as positive controls for AF2 site-specific binding. TR-FRET was analysed on a Synergy 4 hybrid microplate reader (BioTek, Winooski, VT, USA) with the settings at 340-nm excitation and 495- and 520-nm emission. The emission ratio (520:495) was analysed and plotted.

ERα LBD = molecular target: T3, ERα LBD (Homo sapiens, UniProt P03372); assay: Biolayer interferometry (BLI) direct binding assay; conditions: biotinylated ERα LBD on streptavidin sensor, 3–100 μM
T3 construct: ERα LBD (amino acids 302–552) was cloned into the pAN4 AviTag™ Vector; made in house
T3 sequence (P03372 302-552): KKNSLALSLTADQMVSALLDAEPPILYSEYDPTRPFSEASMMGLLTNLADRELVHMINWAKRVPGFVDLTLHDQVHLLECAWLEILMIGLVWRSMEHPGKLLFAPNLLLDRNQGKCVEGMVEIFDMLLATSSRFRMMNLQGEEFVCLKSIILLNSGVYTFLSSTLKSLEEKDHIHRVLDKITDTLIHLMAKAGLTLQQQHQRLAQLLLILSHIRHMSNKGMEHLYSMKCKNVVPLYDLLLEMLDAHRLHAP
Description: The direct binding of small molecules to the ERα-LBD was quantified by BLI using an Octet RED apparatus (Pall ForteBio, Menlo Park, CA, USA). ERα LBD (amino acids 302–552) was cloned into the pAN4 AviTag™ Vector, (Avidity, Aurora, CO, USA). Biotinylated ERα-LBD was purified as described previously. Biotinylated protein (bERα LBD at 0.05 mg/mL) was bound to the super streptavidin sensors (Pall ForteBio) overnight at 4 °C in assay buffer (20 mM Tris, pH 7.5, 500 mM NaCl, 0.2 mM tris(2-carboxyethyl)phosphine TCEP, 0.02 mM E2, 5% glycerol and 5% dimethyl sulfoxide (DMSO). The compounds were dissolved in the assay buffer in a two-fold dilution series ranging from 3.1–100 μM. In all experiments, a known AF2-interacting peptide, PGC-1α (Elim Biopharmaceuticals, Hayward, CA, USA) was used as a control to confirm the functionality of the bERα LBD.

ERα [3] = molecular target: T1, ERα; assay: Estrogen-responsive luciferase reporter transcriptional assay in T47DKBluc cells; type: cell-based; conditions: 1 nM E2, 24 h; for IC50: read-out: IC50 against ERα in the luciferase reporter-based transcriptional assay
Description: T47DKBluc cells (ATCC® CRL-2865^TM, Manassa, VA, USA) stably transfected with a 3X-ERE–promoter–luciferase reporter gene construct, pGL2.TATA.Inr.luc.neo [38], were used to measure inhibition of ERα-driven transcriptional activity of the luciferase reporter.
This assay was performed as described previously. Briefly, ERα-positive T47DKBluc cells were grown in phenol red-free RPMI 1640 supplemented with 10% CSS for 5 days. The cells were seeded on 96-well plates (2 × 10^4 cells/well). After 24 h, the cells were treated with test compounds in the presence of 1 nM E2. Twenty four hours post-treatment, the cells were lysed with 50 μL of 1× passive lysis buffer (Promega, Madison, WI, USA). Twenty microliters of the lysate from each treatment were transferred onto a white, 96-well, flat-bottomed plate (Corning Life Sciences, Corelle, NY, USA), and the luminescent signal was measured after adding 50 μL of the luciferase assay reagent (Promega, Madison, WI, USA) on a Tecan M200Pro microplate reader (Tecan, Menedorf, Switzerland). Differences in growth were normalised against total protein concentration, which was measured by the bicinchoninic acid (BCA) assay.

Row | Direct binding to ERα LBD (BLI) (ERα LBD) | IC50 (ERα [3]) [µM] | Structure (SMILES) | further results
1 | direct, reversible binding | 2.7 | CC(=O)N(/N=C1\Sc2ccccc2C1=O)c1ccccc1Cl [VPC-16464] | Displacement of FL-PGC1α peptide from ERα-LBD AF2 site (TR-FRET) [2]: successfully displaced
2 | abolished | – | CC(=O)N(/N=C1\Cc2ccccc2C1=O)c1ccccc1Cl [VPC-16600] | IC50 against ERα in the luciferase reporter-based transcriptional assay (ERα [3]): Inactive
3 | abolished | – | CC(=O)N(/N=C1\Oc2ccccc2C1=O)c1ccccc1Cl [VPC-16602] | IC50 against ERα in the luciferase reporter-based transcriptional assay (ERα [3]): Inactive
4 | – | 2.9 | CC(=O)N(/N=C1\Sc2c(F)cccc2C1=O)c1ccccc1Cl [VPC-16607] | –

Further lines, the compound ahead of its results:

Row | Structure (SMILES) | Direct binding to ERα LBD (BLI) (ERα LBD) | IC50 (ERα [3]) [µM] | further results
5 | CCOc1cc(Br)cc(/C=N/NC(=O)c2ccc3c(c2)OCCO3)c1O [VPC-16230] | – | – | IC50 (ERα [1]): 5.8 µM
6 | CC(=O)N(/N=C1\Sc2ccccc2C1=O)c1cccc(C)c1 [compound 16457] | – | 3.78 | –
7 | CC(=O)N(/N=C1\Sc2ccccc2C1=O)c1ccc(C)cc1 [compound 16475] | – | 12.3 | –
8 | CC(=O)N(/N=C1\Sc2ccccc2C1=O)c1ccc(C)c(C)c1 [compound 16484] | – | 9.83 | –
9 | CC(=O)N(/N=C1\Sc2ccccc2C1=O)c1ccccc1F [compound 16487] | – | 4.64 | –
